Patent publication US20240018105A1, “TROPOLONE DERIVATIVES AND TAUTOMERS THEREOF FOR IRON REGULATION IN ANIMALS” (Kinesid Therapeutics, Inc., priority 2019, published 2024)

Assay: Ligand facilitated Fe(III) efflux from liposomes
Settings: 10 uM ligand concentration; for Liposome Fe transport kefflux at 10 10 μM: Table 1; for Liposome Fe transport Kefflux at 10 μM: Table 2
Method: Assay 1: Ligand Facilitated Fe(III) Efflux from Liposomes Preparation of POPC (1-palmitoyl-2-oleoyl-sn-glycero-3-phosphocholine): Cholesterol Liposomes:
A 1M buffer solution of MES and Tris was prepared by dissolving 121.14 grams of Tris base and 213.25 grams of MES hydrate in 500 mL of MilliQ water and adjusted to pH7.0 using an […] HCl solution before bringing the total volume of the solution to 1 L. A 500 mM solution of FeCl3 was prepared by dissolving 0.811 grams of anhydrous FeCl3 in 10 mL of a 0.1M H2SO4 aqueous solution. Inside buffer is prepared in a 50 mL falcon tube, which was added with 25 mL of MilliQ water, 1.61 g of sodium citrate, 1.5 mL of the above FeCl3 solution, and 2.5 mL of the 1M MES/Tris HCl buffer (pH=7.0), and finally additional MilliQ H2O to bring to a 50 mL final volume.
Lipid solution is prepared by dissolving 206.9 mg of POPC (1-palmitoyl-2-oleoyl-sn-glycero-3-phosphocholine) and 8.6 mg of cholesterol in 10 mL of ethanol.
The lipids solution and the inside buffer solution are independently loaded into 10 mL luer lock syringes for loading into a virgin cartridge on a Precision Nanosystems NanoAssembler to prepare unilamaller liposomes with the following parameters: 7.5 mL total volume, 1.5:1 mixing ratio of inside buffer:lipids solution, 8 mL/min flow rate, ambient temperature, 0.35 mL start waste, and 0.05 mL of end waste. 7.5 mL of liposomes is harvested for purification on a 6-inch long, 1-inch diameter Sephadex G-50 column wetted in 600 mM sodium ascorbate and 50 mM MES/Tris HCl pH 7.0 buffer. This buffer also serves as the column running buffer. The crude liposome solution is carefully loaded with minimal volume of running buffer above the top of the Sphadex, allowed to enter the matrix, and the column is run with the continued addition of running buffer. The eluting liposomes, observed as a milky and turbid solution, are collected until free iron begins to elute (observed as a deep purple color) and the fractions are pooled for phosphorus quantitation.
Phosphorus content of eluted liposomes was determined by the process outlined below. 10 uL of liposome elution and a running buffer blank are added to a 5 mL glass vial containing 450 uL of a 8.9 M aqueous H2SO4 solution, the mixture is heated to 225° C. for 25 minutes in an aluminum heat block to hydrolyze POPC and cooled for 5 minutes. 200 ul of a 30% hydrogen peroxide aqueous solution is added to each vial and heated to 225° C. for 25 minutes. After cooling, the phosphorus content was determined using an Abcam Phosphate Assay kit, with buffer subtracted phosphorus levels determined against a standard curve of phosphate included in the kit. Liposomes were diluted to 1 mM phosphate in Running Buffer for use in assays after accounting for dilutions made during phospholipid digestion.
Determination of the rate at which a small molecule ligand liberates (transport) Ferric iron from liposomes is performed in clear bottom black 384-well plates on a Spectramax i3x set to read the absorbance at 562 nm in the kinetic mode every 60 seconds for 120 minutes. 1 uL of serially diluted DMSO stock solution of a small molecule ligand is added to wells in triplicate to give the final concentrations of 40, 20, 10, 5, 2.5, and 1.25 uM of the ligand at 80 μL final volume, followed by addition of 1 μL of 100 mM Ferrozine in water to give a final concentration of 1 mM ferrozine. 78 uL of liposomes diluted to 1 mM phosphorus in running buffer is added to wells as quickly as possible (using a digital repeater mulchannel pipette) with the kinetic read initiated as rapidly as possible after addition of liposomes to all wells. Typically, eight compounds at six concentrations are tested in triplicate simultaneously.
Upon completion of kinetic read, the data for individual reads is fitted to a single phase association regression with the equation Y=(Y0−YMax)^(−kX)+YMax, with Y being the 562 absorbance value and X being time in minutes. […]

SMILES | Liposome Fe transport kefflux at 10 10 μM | Liposome Fe transport Kefflux at 10 μM
O=c1cccc(-c2ccncc2)cc1O [Ex.7, 2-hydroxy-4-(pyridin-4-yl)cyclohepta-2,4,6-trien-1-one] | 0.1-5 | –
Nc1ccc(-c2cccc(=O)c(O)c2)cn1 [Ex.13, 4-(6-aminopyridin-3-yl)-2-hydroxycyclohepta-2,4,6-trien-1-one] | 0.1-5 | –
Cc1ccncc1-c1cccc(=O)c(O)c1 [Ex.14, 2-hydroxy-4-(4-methylpyridin-3-yl)cyclohepta-2,4,6-trien-1-one] | 0.1-5 | –
Cc1nc(C)c(-c2cccc(=O)c(O)c2)cc1F.O=C(O)C(F)(F)F [Ex.20, 4-(5-fluoro-2,6-dimethylpyridin-3-yl)-2-hydroxycyclohepta-2,4,6-trien-1-one] | 0.1-5 | –
Cc1nc(C)c(-c2ccc(O)c(=O)cc2)cc1F.O=C(O)C(F)(F)F [Ex.21, 5-(5-fluoro-2,6-dimethylpyridin-3-yl)-2-hydroxycyclohepta-2,4,6-trien-1-one] | 0.1-5 | –
O=c1ccc(-c2ccc(F)cn2)ccc1O [Ex.22, 5-(5-fluoropyridin-2-yl)-2-hydroxycyclohepta-2,4,6-trien-1-one] | 0.1-5 | –
Cc1cc(-c2ccc(F)cn2)ccc(O)c1=O.O=C(O)C(F)(F)F [Ex.25, 4-(5-fluoropyridin-2-yl)-7-hydroxy-2-methylcyclohepta-2,4,6-trien-1-one] | 5-7.5 | –
Cc1cccc(-c2cncc(F)c2)c(=O)c1O.O=C(O)C(F)(F)F [Ex.27, 7-(5-fluoropyridin-3-yl)-2-hydroxy-3-methylcyclohepta-2,4,6-trien-1-one] | 10-25 | –
CSc1nccc(-c2ccccc(O)c2=O)n1 [Ex.40, 2-hydroxy-7-(2-(methylthio)pyrimidin-4-yl)cyclohepta-2,4,6-trien-1-one] | 5-7.5 | –
Nc1ncc(-c2cccc(=O)c(O)c2)cn1.O=C(O)C(F)(F)F [Ex.41, 4-(2-aminopyrimidin-5-yl)-2-hydroxycyclohepta-2,4,6-trien-1-one] | 0.1-5 | –
O=c1cccc(-c2ncccn2)cc1O [Ex.43, 2-hydroxy-4-(pyrimidin-2-yl)cyclohepta-2,4,6-trien-1-one] | 5-7.5 | –
O=c1ccc(-c2ncccn2)ccc1O [Ex.44, 2-hydroxy-5-(pyrimidin-2-yl)cyclohepta-2,4,6-trien-1-one] | 0.1-5 | –
Cc1cncc(-c2cccc(=O)c(O)c2)c1 [Ex.55, 2-hydroxy-4-(5-methylpyridin-3-yl)cyclohepta-2,4,6-trien-1-one] | 0.1-5 | –
Cc1ncc(F)cc1-c1ccc(O)c(=O)cc1 [Ex.60, 5-(5-fluoro-2-methylpyridin-3-yl)-2-hydroxycyclohepta-2,4,6-trien-1-one] | 0.1-5 | –
CC(C)c1cccc(-c2cncc(F)c2)c(=O)c1O [Ex.62, 7-(5-fluoropyridin-3-yl)-2-hydroxy-3-isopropylcyclohepta-2,4,6-trien-1-one] | – | <0.1
Cc1c(F)cncc1-c1ccc(O)c(=O)c(C)c1 [Ex.63, 4-(5-fluoro-4-methylpyridin-3-yl)-7-hydroxy-2-methylcyclohepta-2,4,6-trien-1-one] | – | 10-25
Cc1c(F)cncc1-c1ccc(O)c(=O)c(C(C)C)c1 [Ex.64, 4-(5-fluoro-4-methylpyridin-3-yl)-7-hydroxy-2-isopropylcyclohepta-2,4,6-trien-1-one] | – | <0.1

SMILES | Liposome Fe transport kefflux at 10 10 μM | Liposome Fe transport Kefflux at 10 μM
O=c1ccc(Oc2ccc(F)cc2)ccc1O [Ex.65, 5-(4-fluorophenoxy)-2-hydroxycyclohepta-2,4,6-trien-1-one] | – | 5-7.5
O=c1ccccc(-c2c(F)cccc2F)c1O [Ex.68, 3-(2,6-difluorophenyl)-2-hydroxycyclohepta-2,4,6-trien-1-one] | – | 7.5-10
O=c1ccccc(-c2ncccc2F)c1O [Ex.71, 3-(3-fluoropyridin-2-yl)-2-hydroxycyclohepta-2,4,6-trien-1-one] | – | 0.1-5
O=c1ccccc(-c2ccc(F)cn2)c1S [Ex.72, 3-(5-fluoropyridin-2-yl)-2-mercaptocyclohepta-2,4,6-trien-1-one] | – | 7.5-10
O=C1C=CC(CCc2nc(-c3ccccc(=O)c3O)ccc2F)S1 (stereo not drawn) [Ex.74, 5-(2-(3-fluoro-6-(2-hydroxy-3-oxocyclohepta-1,4,6-trien-1-yl)pyridin-2-yl)ethyl)thiophen-2(5H)-one] | – | 0.1-5
Cc1cccc(Oc2ccc(F)cc2F)c(O)c1=O [Ex.77, 3-(2,4-difluorophenoxy)-2-hydroxy-7-methylcyclohepta-2,4,6-trien-1-one] | – | 0.1-5
Cc1cccc(Oc2ccccc2)c(O)c1=O [Ex.78, 2-hydroxy-7-methyl-3-phenoxycyclohepta-2,4,6-trien-1-one] | – | 0.1-5
O=c1ccccc(-c2cocn2)c1O [Ex.79, 2-hydroxy-3-(oxazol-4-yl)cyclohepta-2,4,6-trien-1-one] | – | 5-7.5
O=c1ccccc(-c2nccs2)c1O [Ex.80, 2-hydroxy-3-(thiazol-2-yl)cyclohepta-2,4,6-trien-1-one] | – | 5-7.5
O=c1c(F)cccc(-c2cscn2)c1O [Ex.81, 7-fluoro-2-hydroxy-3-(thiazol-4-yl)cyclohepta-2,4,6-trien-1-one] | – | 7.5-10
O=c1c(Cl)cccc(-c2cscn2)c1O [Ex.82, 7-chloro-2-hydroxy-3-(thiazol-4-yl)cyclohepta-2,4,6-trien-1-one] | – | 0.1-5
O=c1ccc(F)cc(-c2cscn2)c1O [Ex.83, 5-fluoro-2-hydroxy-3-(thiazol-4-yl)cyclohepta-2,4,6-trien-1-one] | – | 0.1-5
COC(=O)Cc1ccc(Oc2ccccc(=O)c2O)c(F)c1 [Ex.84, methyl 2-(3-fluoro-4-((2-hydroxy-3-oxocyclohepta-1,4,6-trien-1-yl)oxy)phenyl)acetate] | – | 5-7.5
O=c1ccccc(-c2ccns2)c1O [Ex.85, 2-hydroxy-3-(isothiazol-5-yl)cyclohepta-2,4,6-trien-1-one] | – | 0.1-5
COC(=O)c1ccc(Oc2ccccc(=O)c2O)c(F)c1 [Ex.86, methyl 3-fluoro-4-((2-hydroxy-3-oxocyclohepta-1,4,6-trien-1-yl)oxy)benzoate] | – | 0.1-5
O=c1ccc(C(CO)Cc2ccccc2)cc(-c2cscn2)c1O (stereo not drawn) [Ex.87, 2-hydroxy-5-(1-hydroxy-3-phenylpropan-2-yl)-3-(thiazol-4-yl)cyclohepta-2,4,6-trien-1-one] | – | 0.1-5
